ChEMBL document CHEMBL4325871 (Eur J Med Chem, 2019)
Activity calls are given as the source filed them. The rule behind the calls is not given here.

Columns and labels:
[1] = target: MAP kinase-interacting serine/threonine-protein kinase 1 (Homo sapiens) (UniProt Q9BUB5); experiment: Inhibition of human MNK1 assessed as residual activity at 1 uM using MBP as substrate by [gamma-33P]-ATP assay relative to control
[2] = target: Protein-tyrosine kinase 6 (Homo sapiens) (UniProt Q13882); experiment: Inhibition of human BRK assessed as residual activity at 1 uM using poly[Glu:Tyr](4:1) as substrate by [gamma-33P]-ATP assay relative to control
[3] = target: Myosin-IIIa (Homo sapiens) (UniProt Q8NEV4); experiment: Inhibition of human MYO3A assessed as residual activity at 1 uM using MBP as substrate by [gamma-33P]-ATP assay relative to control
[4] = target: T1, Serine/threonine-protein kinase Chk1 (Homo sapiens) (UniProt O14757); experiment: Inhibition of CHK1 phosphorylation at S296 residue in human HCT116 cells at 20 uM after 8 hrs by Western blot analysis; format: cell-based
T1 sequence (whole entry): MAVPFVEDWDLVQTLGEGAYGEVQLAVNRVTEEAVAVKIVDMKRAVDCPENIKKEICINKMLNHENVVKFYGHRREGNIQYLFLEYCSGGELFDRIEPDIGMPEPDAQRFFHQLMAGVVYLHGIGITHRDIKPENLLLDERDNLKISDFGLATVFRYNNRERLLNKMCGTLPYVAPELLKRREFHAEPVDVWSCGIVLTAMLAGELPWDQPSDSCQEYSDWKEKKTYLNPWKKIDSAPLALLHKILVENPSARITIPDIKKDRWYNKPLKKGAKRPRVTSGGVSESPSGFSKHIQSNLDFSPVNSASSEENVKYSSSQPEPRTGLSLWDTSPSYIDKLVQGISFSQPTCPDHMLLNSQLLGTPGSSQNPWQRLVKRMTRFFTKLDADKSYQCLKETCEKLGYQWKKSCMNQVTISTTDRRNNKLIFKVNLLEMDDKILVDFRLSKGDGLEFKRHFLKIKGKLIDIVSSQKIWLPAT

[5] = target: Serine/threonine-protein kinase ULK3 (Homo sapiens) (UniProt Q6PHR2); experiment: Inhibition of human ULK3 assessed as residual activity at 1 uM using MBP as substrate by [gamma-33P]-ATP assay relative to control
[6] = target: Mitogen-activated protein kinase kinase kinase 10 (Homo sapiens) (UniProt Q02779); experiment: Inhibition of human MLK2 assessed as residual activity at 1 uM using MBP as substrate by [gamma-33P]-ATP assay relative to control
[7] = target: Serine/threonine-protein kinase Nek2 (Homo sapiens) (UniProt P51955); experiment: Inhibition of human NEK2 assessed as residual activity at 1 uM using MBP as substrate by [gamma-33P]-ATP assay relative to control
[8] = target: Glycogen synthase kinase-3 beta (Homo sapiens) (UniProt P49841); experiment: Inhibition of human GSK3B assessed as residual activity at 1 uM using YRRAAVPPSPSLSRHSSPHQ(pS)EDEEE as substrate by [gamma-33P]-ATP assay relative to control
[9] = target: RAC-gamma serine/threonine-protein kinase (Homo sapiens) (UniProt Q9Y243); experiment: Inhibition of human AKT3 assessed as residual activity at 1 uM using KGSGSGRPRTSSFAEG as substrate by [gamma-33P]-ATP assay relative to control
[10] = target: Serine/threonine-protein kinase N1 (Homo sapiens) (UniProt Q16512); experiment: Inhibition of human PKN1 assessed as residual activity at 1 uM using KKLNRTLSVA as substrate by [gamma-33P]-ATP assay relative to control
[11] = target: Cyclin-dependent kinase 2/cyclin E1 (Homo sapiens) (UniProt P24864+P24941); experiment: Inhibition of human CDK2/cyclin-E assessed as residual activity at 1 uM using histone H1 as substrate by [gamma-33P]-ATP assay relative to control; format: protein-complex assay
[12] = target: Tyrosine-protein kinase ITK/TSK (Homo sapiens) (UniProt Q08881); experiment: Inhibition of human ITK assessed as residual activity at 1 uM using MBP as substrate by [gamma-33P]-ATP assay relative to control
[13] = target: Tyrosine-protein kinase Lck (Homo sapiens) (UniProt P06239); experiment: Inhibition of human LCK assessed as residual activity at 1 uM using poly[Glu:Tyr] (4:1) as substrate by [gamma-33P]-ATP assay relative to control
[14] = target: Calcium/calmodulin-dependent protein kinase type II subunit alpha (Homo sapiens) (UniProt Q9UQM7); experiment: Inhibition of human CAMK2A assessed as residual activity at 1 uM using KKALRRQETVDAL as substrate by [gamma-33P]-ATP assay relative to control
[15] = target: Mitogen-activated protein kinase kinase kinase 9 (Homo sapiens) (UniProt P80192); experiment: Inhibition of human MLK1 assessed as residual activity at 1 uM using casein as substrate by [gamma-33P]-ATP assay relative to control
[16] = target: Aurora kinase B (Homo sapiens) (UniProt Q96GD4); experiment: Inhibition of human Aurora B assessed as residual activity at 1 uM using [H-LRRASLG] as substrate by [gamma-33P]-ATP assay relative to control
[17] = target: Serine/threonine-protein kinase Nek11 (Homo sapiens) (UniProt Q8NG66); experiment: Inhibition of human NEK11 assessed as residual activity at 1 uM using MBP as substrate by [gamma-33P]-ATP assay relative to control
[18] = target: Serine/threonine-protein kinase tousled-like 1 (Homo sapiens) (UniProt Q9UKI8); experiment: Inhibition of human TLK1 assessed as residual activity at 1 uM using Histone H3 as substrate by [gamma-33P]-ATP assay relative to control
[19] = target: Leucine-rich repeat serine/threonine-protein kinase 2 (Homo sapiens) (UniProt Q5S007); experiment: Inhibition of human LRRK2 assessed as residual activity at 1 uM using RLGRDKYKTLRQIRQ as substrate by [gamma-33P]-ATP assay relative to control
[20] = target: Serine/threonine-protein kinase ULK2 (Homo sapiens) (UniProt Q8IYT8); experiment: Inhibition of human ULK2 assessed as residual activity at 1 uM using MBP as substrate by [gamma-33P]-ATP assay relative to control
[21] = target: Maternal embryonic leucine zipper kinase (Homo sapiens) (UniProt Q14680); experiment: Inhibition of human MELK assessed as residual activity at 1 uM using KKLNRTLSFAEPG as substrate by [gamma-33P]-ATP assay relative to control
[22] = target: High affinity nerve growth factor receptor (Homo sapiens) (UniProt P04629); experiment: Inhibition of human TRKA assessed as residual activity at 1 uM using poly[Glu:Tyr] (4:1) as substrate by [gamma-33P]-ATP assay relative to control
[23] = target: CDK6/cyclin D1 (Homo sapiens) (UniProt P24385+Q00534); experiment: Inhibition of human CDK6/cyclin-D1 assessed as residual activity at 1 uM using RB protein as substrate by [gamma-33P]-ATP assay relative to control; format: protein-complex assay

Sequence of Mitogen-activated protein kinase kinase kinase 9 (Homo sapiens) (P80192 whole entry, looked up): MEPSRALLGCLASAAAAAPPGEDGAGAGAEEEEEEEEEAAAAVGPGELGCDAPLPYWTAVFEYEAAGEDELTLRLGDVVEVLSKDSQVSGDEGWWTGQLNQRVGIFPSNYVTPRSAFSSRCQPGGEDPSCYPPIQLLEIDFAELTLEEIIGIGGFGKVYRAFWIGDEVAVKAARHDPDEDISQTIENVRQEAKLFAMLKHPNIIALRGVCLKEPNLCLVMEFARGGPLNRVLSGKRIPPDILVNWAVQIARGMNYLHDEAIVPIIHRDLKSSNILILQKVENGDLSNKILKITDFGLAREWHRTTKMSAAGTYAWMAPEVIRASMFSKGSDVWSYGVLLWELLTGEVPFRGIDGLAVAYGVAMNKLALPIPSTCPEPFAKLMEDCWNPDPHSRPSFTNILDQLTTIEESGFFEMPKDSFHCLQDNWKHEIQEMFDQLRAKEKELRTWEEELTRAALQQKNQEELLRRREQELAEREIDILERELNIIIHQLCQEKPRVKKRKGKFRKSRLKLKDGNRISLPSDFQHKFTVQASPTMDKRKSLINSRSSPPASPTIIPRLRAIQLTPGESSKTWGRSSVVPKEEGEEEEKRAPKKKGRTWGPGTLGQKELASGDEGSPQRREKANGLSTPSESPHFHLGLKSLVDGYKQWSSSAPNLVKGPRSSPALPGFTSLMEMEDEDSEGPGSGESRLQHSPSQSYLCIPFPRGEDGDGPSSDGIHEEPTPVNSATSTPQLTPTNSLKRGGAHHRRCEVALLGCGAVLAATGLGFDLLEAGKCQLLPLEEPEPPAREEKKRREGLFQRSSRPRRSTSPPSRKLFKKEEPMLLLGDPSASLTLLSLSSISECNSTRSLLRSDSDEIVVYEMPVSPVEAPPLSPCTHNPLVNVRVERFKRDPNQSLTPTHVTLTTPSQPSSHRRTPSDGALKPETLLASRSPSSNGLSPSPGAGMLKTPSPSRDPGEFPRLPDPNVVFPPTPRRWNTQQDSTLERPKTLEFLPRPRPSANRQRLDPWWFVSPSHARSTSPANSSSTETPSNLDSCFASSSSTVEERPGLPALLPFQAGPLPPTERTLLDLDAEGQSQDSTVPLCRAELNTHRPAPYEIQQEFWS
Sequence of Serine/threonine-protein kinase ULK2 (Homo sapiens) (Q8IYT8 whole entry): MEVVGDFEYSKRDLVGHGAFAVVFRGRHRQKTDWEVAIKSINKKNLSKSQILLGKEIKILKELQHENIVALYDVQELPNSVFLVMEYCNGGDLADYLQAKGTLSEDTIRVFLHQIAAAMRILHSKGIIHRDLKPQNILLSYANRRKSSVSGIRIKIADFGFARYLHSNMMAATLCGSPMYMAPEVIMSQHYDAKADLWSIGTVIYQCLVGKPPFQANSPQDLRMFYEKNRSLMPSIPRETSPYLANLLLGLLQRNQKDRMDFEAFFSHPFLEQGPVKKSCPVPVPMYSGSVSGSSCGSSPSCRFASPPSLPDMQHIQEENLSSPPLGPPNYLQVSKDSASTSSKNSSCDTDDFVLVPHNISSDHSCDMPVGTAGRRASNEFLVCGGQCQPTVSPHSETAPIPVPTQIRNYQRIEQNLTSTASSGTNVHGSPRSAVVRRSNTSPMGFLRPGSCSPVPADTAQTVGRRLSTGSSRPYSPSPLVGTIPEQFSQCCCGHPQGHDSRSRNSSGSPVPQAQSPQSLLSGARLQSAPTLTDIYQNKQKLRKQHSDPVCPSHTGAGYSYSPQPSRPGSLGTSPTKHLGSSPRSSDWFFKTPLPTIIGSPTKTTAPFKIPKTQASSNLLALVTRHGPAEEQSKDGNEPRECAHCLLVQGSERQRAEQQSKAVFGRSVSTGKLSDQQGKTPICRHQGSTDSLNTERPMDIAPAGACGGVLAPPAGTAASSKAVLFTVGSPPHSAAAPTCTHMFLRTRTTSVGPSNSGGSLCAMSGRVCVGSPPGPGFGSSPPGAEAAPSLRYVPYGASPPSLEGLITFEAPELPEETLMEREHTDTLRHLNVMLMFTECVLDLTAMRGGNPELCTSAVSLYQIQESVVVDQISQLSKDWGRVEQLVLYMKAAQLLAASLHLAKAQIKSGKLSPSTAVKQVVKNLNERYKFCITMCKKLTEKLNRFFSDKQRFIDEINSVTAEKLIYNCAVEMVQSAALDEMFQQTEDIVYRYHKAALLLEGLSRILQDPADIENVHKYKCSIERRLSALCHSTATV
Sequence of Serine/threonine-protein kinase ULK3 (Homo sapiens) (Q6PHR2 whole entry): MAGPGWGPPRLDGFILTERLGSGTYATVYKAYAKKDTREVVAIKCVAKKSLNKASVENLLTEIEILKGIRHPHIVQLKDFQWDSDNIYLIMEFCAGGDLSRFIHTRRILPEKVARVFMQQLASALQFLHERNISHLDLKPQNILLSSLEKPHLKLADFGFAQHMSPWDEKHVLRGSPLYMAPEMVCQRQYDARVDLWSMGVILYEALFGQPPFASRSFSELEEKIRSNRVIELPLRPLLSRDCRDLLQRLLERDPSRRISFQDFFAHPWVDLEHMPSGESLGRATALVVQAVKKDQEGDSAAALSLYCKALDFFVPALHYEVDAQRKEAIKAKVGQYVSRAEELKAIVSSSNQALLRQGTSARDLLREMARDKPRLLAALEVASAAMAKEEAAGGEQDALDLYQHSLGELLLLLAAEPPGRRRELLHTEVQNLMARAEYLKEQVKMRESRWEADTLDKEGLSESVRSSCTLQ
Sequence of High affinity nerve growth factor receptor (Homo sapiens) (P04629 33-796 limits assumed): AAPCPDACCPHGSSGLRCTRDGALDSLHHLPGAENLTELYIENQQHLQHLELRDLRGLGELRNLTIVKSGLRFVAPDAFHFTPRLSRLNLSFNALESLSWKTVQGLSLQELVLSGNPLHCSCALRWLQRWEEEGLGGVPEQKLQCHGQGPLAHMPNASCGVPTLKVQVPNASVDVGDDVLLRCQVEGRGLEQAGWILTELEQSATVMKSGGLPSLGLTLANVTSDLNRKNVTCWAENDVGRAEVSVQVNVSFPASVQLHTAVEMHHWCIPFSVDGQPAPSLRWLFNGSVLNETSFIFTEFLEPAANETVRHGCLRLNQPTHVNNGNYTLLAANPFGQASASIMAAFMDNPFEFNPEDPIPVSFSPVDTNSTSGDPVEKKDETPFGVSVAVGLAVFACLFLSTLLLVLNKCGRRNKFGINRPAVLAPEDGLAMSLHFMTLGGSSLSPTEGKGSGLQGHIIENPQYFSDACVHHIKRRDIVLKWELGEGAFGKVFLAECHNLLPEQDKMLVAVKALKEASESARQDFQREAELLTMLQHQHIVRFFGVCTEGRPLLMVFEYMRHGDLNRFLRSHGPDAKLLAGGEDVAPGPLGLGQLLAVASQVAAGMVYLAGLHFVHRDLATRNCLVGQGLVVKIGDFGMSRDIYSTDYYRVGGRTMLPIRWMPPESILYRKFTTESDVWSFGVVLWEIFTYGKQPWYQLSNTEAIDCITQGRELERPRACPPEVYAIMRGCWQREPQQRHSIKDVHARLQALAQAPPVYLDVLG
Sequence of Mitogen-activated protein kinase kinase kinase 10 (Homo sapiens) (Q02779 whole entry, looked up): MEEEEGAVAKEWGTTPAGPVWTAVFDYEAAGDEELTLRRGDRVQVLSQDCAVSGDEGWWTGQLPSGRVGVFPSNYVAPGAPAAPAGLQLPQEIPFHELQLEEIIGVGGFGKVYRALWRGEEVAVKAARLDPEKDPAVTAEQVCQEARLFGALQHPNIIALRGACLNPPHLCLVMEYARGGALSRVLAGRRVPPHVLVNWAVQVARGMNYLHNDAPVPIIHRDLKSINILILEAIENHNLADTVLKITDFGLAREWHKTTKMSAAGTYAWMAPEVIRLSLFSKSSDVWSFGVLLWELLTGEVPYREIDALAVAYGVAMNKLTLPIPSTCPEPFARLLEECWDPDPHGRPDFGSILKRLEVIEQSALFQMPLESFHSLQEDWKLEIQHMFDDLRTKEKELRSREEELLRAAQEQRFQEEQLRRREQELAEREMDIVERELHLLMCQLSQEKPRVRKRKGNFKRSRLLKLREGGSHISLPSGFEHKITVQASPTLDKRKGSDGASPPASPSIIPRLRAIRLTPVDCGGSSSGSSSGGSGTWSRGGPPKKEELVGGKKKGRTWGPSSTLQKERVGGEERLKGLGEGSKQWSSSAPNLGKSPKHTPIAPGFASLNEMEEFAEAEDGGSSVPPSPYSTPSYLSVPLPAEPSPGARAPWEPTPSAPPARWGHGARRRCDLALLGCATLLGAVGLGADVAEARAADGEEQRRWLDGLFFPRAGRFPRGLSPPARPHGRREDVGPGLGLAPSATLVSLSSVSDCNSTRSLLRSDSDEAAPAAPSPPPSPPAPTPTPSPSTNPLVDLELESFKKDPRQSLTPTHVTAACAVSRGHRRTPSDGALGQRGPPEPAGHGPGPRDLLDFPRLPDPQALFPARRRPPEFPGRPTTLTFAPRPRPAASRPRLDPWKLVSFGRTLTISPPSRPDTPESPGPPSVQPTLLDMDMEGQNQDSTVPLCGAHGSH
Sequence of RAC-gamma serine/threonine-protein kinase (Homo sapiens) (Q9Y243 whole entry): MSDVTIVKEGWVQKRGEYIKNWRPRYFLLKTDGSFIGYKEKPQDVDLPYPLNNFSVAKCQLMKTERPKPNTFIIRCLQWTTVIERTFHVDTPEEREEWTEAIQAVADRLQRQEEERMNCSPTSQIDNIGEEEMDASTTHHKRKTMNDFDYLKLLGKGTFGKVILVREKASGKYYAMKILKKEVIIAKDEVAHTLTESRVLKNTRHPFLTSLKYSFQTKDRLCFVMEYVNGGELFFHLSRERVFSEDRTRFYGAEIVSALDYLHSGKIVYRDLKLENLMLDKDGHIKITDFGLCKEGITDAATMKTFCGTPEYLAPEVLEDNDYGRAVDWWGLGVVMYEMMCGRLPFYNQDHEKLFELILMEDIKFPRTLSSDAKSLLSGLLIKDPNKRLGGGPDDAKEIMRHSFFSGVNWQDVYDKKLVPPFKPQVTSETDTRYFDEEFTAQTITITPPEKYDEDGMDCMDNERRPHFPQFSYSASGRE

Compound: C(=C\c1ccccc1)/C[N+]12CN3CN(CN(C3)C1)C2
- Activity [1]: 96.3 to 99.7%
- Activity [2]: 95.2 to 95.6%
- Activity [3]: 113 to 122%
- inhibition [4]: inactive
- Activity [5]: 90.5 to 93.8%
- Activity [6]: 96 to 96.1%
- Activity [7]: 106%
- Activity [8]: 93.6 to 94.9%
- Activity [9]: 95.9 to 96%
- Activity [10]: 87.8 to 90.1%
- Activity [11]: 96.3 to 96.9%
- Activity [12]: 91.3 to 92.2%
- Activity [13]: 94.2 to 95.5%
- Activity [14]: 93.1 to 94.1%
- Activity [15]: 96.8%
- Activity [16]: 95.1 to 95.4%
- Activity [17]: 95 to 96.2%

Compound: ClC/C=C/C[N+]12CN3CN(CN(C3)C1)C2
- Activity [18]: 93.1 to 93.4%
- Activity [19]: 91.5 to 93.5%
- Activity [20]: 93.7 to 95.4%
- Activity [21]: 93.8 to 96.1%
- Activity [22]: 94 to 94.8%
- Activity [23]: 97.5 to 97.7%
